From PubChem BioAssay (NCI) come the findings set out here.

“And” between values parts separate entries of the source, which are not always exact repeats. Identical values can stand only once.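 Values below derive from 48-hour exposures of cells grown in 96-well plates, with endpoints linearly interpolated between the two concentrations bracketing the appropriate inhibition level. GI50 is the concentration that inhibits growth by half. TGI marks complete inhibition of growth.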

Test systems include A549 NSCLC; ACHN renal; K-562 leukemia; KM12 colon; M14 melanoma; SF-295 CNS; SK-MEL-28 melanoma; TK-10 renal.
What all share (assay): growth of human tumour cells (NCI), 48 h

For `CC(C)C[C@H](NC(=O)[C@H]1O[C@@H]1C(=O)O)C(=O)NCCc1ccc(O)cc1`, the GI50 in the experiment with A549 NSCLC, in the experiment with ACHN renal, in the experiment on K-562 leukemia, in the experiment with KM12 colon, in the experiment with M14 melanoma and in the experiment with SF-295 CNS was over 100 µM each time. Moreover, the GI50 in the experiment with SK-MEL-28 melanoma and in the experiment on TK-10 renal was over 100 µM throughout. For the same compound, the TGI in the experiment on A549 NSCLC, in the experiment with ACHN renal, in the experiment with K-562 leukemia, in the experiment with KM12 colon, in the experiment with M14 melanoma and in the experiment with SF-295 CNS was over 100 µM each time. Besides, the TGI with SK-MEL-28 melanoma and in the experiment on TK-10 renal was over 100 µM throughout.

In the case of `CC(C)(O)C1CCC(Nc2ccc3ncc(-c4cccc(C(F)(F)F)c4)n3n2)CC1` (centres undefined), the GI50 with A549 NSCLC was 3.1 µM; in the experiment on ACHN renal it was 2.12 µM; in the experiment on K-562 leukemia, 2.27 µM; in the experiment with KM12 colon, 0.132 µM; in the experiment on M14 melanoma, 1.23 µM; with SF-295 CNS it was 1.66 µM. The figures for the GI50 in the experiment on SK-MEL-28 melanoma and in the experiment on TK-10 renal were 1.6 µM and 2.62 µM, respectively. For the same compound, the TGI in the experiment on A549 NSCLC worked out at 13.2 µM; with ACHN renal, 12.3 µM; with K-562 leukemia, 11.9 µM; in the experiment on KM12 colon, 11.7 µM; with M14 melanoma, 4.49 µM; in the experiment with SF-295 CNS it was 4.67 µM. The TGI with SK-MEL-28 melanoma worked out at 3.91 µM; in the experiment on TK-10 renal, 14.1 µM.

Consider `COC(C(=O)C(O)C(C)O)C1Cc2cc3cc(OC4CC(OC(C)=O)C(OC5CC(O)C(OC)C(C)O5)C(C)O4)cc(O)c3c(O)c2C(=O)C1OC1CC(OC2CC(OC3CC(C)(O)C(OC(=O)C(C)C)C(C)O3)C(O)C(C)O2)C(O)C(C)O1` (centres undefined), for which the GI50 in the experiment with A549 NSCLC was 0.0328 µM and 0.00452 µM; in the experiment on SK-MEL-28 melanoma, 0.000911 µM and 0.00146 µM. Also, the TGI is 12.3 µM and 11.1 µM in the experiment on A549 NSCLC; 0.198 µM in the experiment with ACHN renal; 0.257 µM and 0.0292 µM in the experiment with M14 melanoma.

With `C/C(=C\c1ccn(-c2ccc(N)c(F)c2)n1)[C@@H]1C[C@@H]2O[C@]2(C)CCC[C@H](C)[C@H](O)[C@@H](C)C(=O)C(C)(C)[C@@H](O)CC(=O)O1`, the GI50 in the experiment with A549 NSCLC was 0.0118 µM; in the experiment on ACHN renal, 0.234 µM; in the experiment on K-562 leukemia it was 0.00912 µM; in the experiment with KM12 colon it was 0.00857 µM; in the experiment with SF-295 CNS, 0.0205 µM; in the experiment on SK-MEL-28 melanoma it was 7.03 µM. In addition, the GI50 in the experiment with TK-10 renal was 0.064 µM. Also, the TGI in the experiment with A549 NSCLC, in the experiment on ACHN renal, in the experiment on K-562 leukemia, with KM12 colon, in the experiment on SF-295 CNS and with SK-MEL-28 melanoma was over 50 µM throughout. In the experiment on TK-10 renal, the TGI is over 50 µM.

Consider `N#Cc1c(N)nc(N2CCOCC2)c(C#N)c1-c1ccc(Cl)cc1`, for which the GI50 was 42.6 µM with A549 NSCLC; over 100 µM in the experiment on K-562 leukemia; 44.6 µM in the experiment on M14 melanoma; 44.8 µM with SF-295 CNS; 70.9 µM in the experiment on SK-MEL-28 melanoma. Also, the TGI with A549 NSCLC, in the experiment with K-562 leukemia, with M14 melanoma, with SF-295 CNS and with SK-MEL-28 melanoma was over 100 µM in each case.

Take `Cn1ccc2c(c1=O)C(=O)c1nccc3c1c-2nc1ccccc13`: the GI50 in the experiment with A549 NSCLC was 1.47 µM; in the experiment with ACHN renal it was 1.59 µM; in the experiment on M14 melanoma it was 1.84 µM; with SF-295 CNS it was 1.54 µM; in the experiment with SK-MEL-28 melanoma, 1.61 µM. Besides, the TGI stood at 2.9 µM in the experiment with A549 NSCLC; 2.99 µM with ACHN renal; 3.52 µM with M14 melanoma; 3.02 µM in the experiment on SF-295 CNS; 3.05 µM with SK-MEL-28 melanoma.

As to `CCN1CCN(CC(=O)Nc2nc3ccc(NCc4ccc(Cl)cc4)cc3s2)CC1`, the GI50 was 2.76 µM with A549 NSCLC; 2.22 µM with ACHN renal; 1.63 µM with K-562 leukemia; 3.73 µM in the experiment on KM12 colon; 1.86 µM in the experiment on M14 melanoma; 1.8 µM with SK-MEL-28 melanoma. In addition, in the experiment with TK-10 renal, the GI50 was 2.84 µM. Also, the TGI is 8.01 µM in the experiment on A549 NSCLC; 5.02 µM in the experiment on ACHN renal; 4.14 µM in the experiment with K-562 leukemia; over 100 µM with KM12 colon; 3.63 µM in the experiment on M14 melanoma; 3.31 µM in the experiment on SK-MEL-28 melanoma. Further, in the experiment with TK-10 renal, the TGI was found to be 7.45 µM.

For the compound `CC(=O)NCCSC(=O)c1ccccc1`, the TGI is 2.06 µM in the experiment with A549 NSCLC; 0.0971 µM with ACHN renal; 2.54 µM in the experiment with KM12 colon; 0.242 µM in the experiment on M14 melanoma; 0.83 µM in the experiment on SF-295 CNS; 1.14 µM in the experiment on SK-MEL-28 melanoma. The TGI in the experiment on TK-10 renal stood at 0.475 µM.

As for `NC(=O)c1cc([N+](=O)[O-])c(Cl)c([N+](=O)[O-])c1`, the GI50 is 16.9 µM in the experiment on A549 NSCLC; 1.87 µM in the experiment with ACHN renal; 4.69 µM in the experiment with KM12 colon; 1.91 µM in the experiment on M14 melanoma; 17.3 µM in the experiment on SF-295 CNS; 2.05 µM in the experiment with SK-MEL-28 melanoma. Further, in the experiment on TK-10 renal, the GI50 was 1.91 µM. Also, the TGI with A549 NSCLC was 32.2 µM; in the experiment on ACHN renal it was 3.37 µM; in the experiment on KM12 colon, 16.3 µM; in the experiment with M14 melanoma, 4.72 µM; with SF-295 CNS, 31.9 µM; in the experiment with SK-MEL-28 melanoma, 4.34 µM. This compound registered a TGI in the experiment on TK-10 renal of 3.36 µM.

Regarding `O=C1CC(c2ccc3c(c2)OCO3)Nc2cc3c(cc21)OCO3` (centres undefined), the GI50 was 0.6 µM in the experiment with A549 NSCLC; 2.05 µM with ACHN renal; 0.358 µM with K-562 leukemia; 0.398 µM in the experiment on KM12 colon; 0.348 µM in the experiment with SF-295 CNS; 2.77 µM in the experiment on TK-10 renal. For the same compound, the TGI is over 100 µM with A549 NSCLC; over 100 µM in the experiment with ACHN renal; over 100 µM in the experiment on K-562 leukemia; 17.3 µM in the experiment on KM12 colon; 6.81 µM in the experiment on SF-295 CNS; over 100 µM in the experiment with TK-10 renal.

Regarding `COc1ccc(-c2cc(-c3ccccc3)nc(N3CCN(CCNc4ccnc5cc(Cl)ccc45)CC3)n2)cc1`, the GI50 in the experiment on A549 NSCLC was 1.9 µM; in the experiment with ACHN renal, 3.8 µM; in the experiment with KM12 colon, 1.94 µM; with SF-295 CNS, 16.6 µM; in the experiment on SK-MEL-28 melanoma it was 1.52 µM; with TK-10 renal it was 2.19 µM. The TGI in the experiment on A549 NSCLC was 4.39 µM; with ACHN renal it was 14.4 µM; with KM12 colon it was 4.04 µM; in the experiment with SF-295 CNS, 33 µM; with SK-MEL-28 melanoma it was 2.94 µM; with TK-10 renal, 4.88 µM.

As for `N#Cc1cccc(C(=O)Nc2cccc(NC(=O)c3cccc(C#N)c3)c2)c1`, the GI50 with A549 NSCLC is 74.3 µM; with ACHN renal, over 100 µM; in the experiment on K-562 leukemia, over 100 µM; with M14 melanoma, over 100 µM; with SF-295 CNS, over 100 µM; in the experiment on SK-MEL-28 melanoma, over 100 µM. Also, in the experiment on TK-10 renal, the GI50 is 52.5 µM. In addition, the TGI in the experiment with A549 NSCLC, in the experiment with ACHN renal, in the experiment on K-562 leukemia, in the experiment with M14 melanoma, in the experiment with SF-295 CNS and in the experiment on SK-MEL-28 melanoma was over 100 µM throughout. Further, in the experiment on TK-10 renal, the TGI is over 100 µM.
